Test results reported in US4857650A, “Novel renin inhibitory amino acid derivatives” (Kissei Pharmaceutical Co., Ltd., priority 1985, dated 1989).

What was measured:
human renin = target: T1, human renin (Homo sapiens, UniProt P00797); assay: Human renin-sheep renin substrate reaction system in vitro; type: biochemical; settings: pH 7.4, 15 minutes at 37° C., read-out: IC50 (molar concentration)
T1 sequence (P00797 67-406): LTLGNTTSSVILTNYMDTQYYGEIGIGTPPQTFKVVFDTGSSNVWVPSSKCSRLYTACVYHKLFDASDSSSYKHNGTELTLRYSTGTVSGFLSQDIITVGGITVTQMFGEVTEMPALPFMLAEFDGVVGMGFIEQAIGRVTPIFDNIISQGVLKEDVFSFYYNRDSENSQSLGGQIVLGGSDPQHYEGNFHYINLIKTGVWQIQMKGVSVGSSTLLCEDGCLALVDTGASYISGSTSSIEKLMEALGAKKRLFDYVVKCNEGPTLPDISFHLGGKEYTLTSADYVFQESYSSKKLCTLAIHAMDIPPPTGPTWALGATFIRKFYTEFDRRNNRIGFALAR
Method: Human resin-sheep resin substrate reaction system in vitro To a mixture containing 200 μl of a 125 mM pyrophosphate buffer (pH 7.4), 25 μl of a 20 mM aqueous solution of […] as an angiotensin converting enzyme inhibitor, 50 μl of semipurified sheep renin substrate ([…]), 50 μl of dimethyl sulfoxide solution of an amino acid derivative of the present invention (or 50 μl of dimethyl sulfoxide as a control) and 150 μl of deionized water was added 25 μl of purified human renin (20-30 ng angiotensin I/ml/hr). The mixture was incubated for 15 minutes on a water bath at 37° C., and the reaction mixture was allowed to stand for 5 minutes on a water bath at 100° C. to stop the reaction. After cooling, 200 μl of the solution were taken up and the amount of angiotensin I produced by the addition of renin was determined by radioimmunoassay. The inhibitory effect was calculated by the following equation. [formula] The molar concentration which produced 50% inhibition (IC50) was calculated from the inhibition value obtained, and the results are shown below.

[1] = target: T2, renin in human high renin plasma (Homo sapiens, UniProt P00797); assay: Renin inhibitory effect in a human high renin plasma; type: biochemical; settings: pH 7.4, 30 minutes at 37° C., read-out: IC50 (molar concentration)
T2 construct: 500 μl of human high renin plasma; from tissue; host or cells: human high renin plasma
T2 sequence (P00797 67-406): T1 sequence (P00797 67-406)
Method: Renin inhibitory effect in a human high renin plasma A mixture of 350 μl of a 0.5M phosphate buffer containing 14 mM EDTA 2Na and a 0.3% neomycin sulfate, which was adjusted to the pH of 7.4, 50 μl of a 20 mM an aqueous solution of […] as an angiotensin converting enzyme inhibitor and 100 μl of dimethyl sulfoxide solution containing an amino acid compound of the present invention was added to 500 μl of human high renin plasma. […] was incubated for 30 minutes at 37° C. in a water bath. A 200 μl sample was withdrawn from the incubated mixture, chilled immediately in an ice bath, and the amount of angiotensin I produced was determined by radioimmunoassay, and remaining of the mixture (200 μ[…] 4° C. in an ice bath. The amount of angiotensin I produced in the incubated mixture at 4° C. in an ice bath was determined by radioimmunoassay. As a control, the same procedure as above was carried out by using 100 μl of dimethyl sulfoxide alone in place of the 100 μl of dimethyl sulfoxide solution containing an amino acid compound of the present invention. The inhibitory effect was calculated by the following equation. [formula] The molar concentration which produced 50% inhibition (IC50) was calculated from the inhibition value obtained, and the results are shown below.

| Compound | IC50 (human renin) [µM] | IC50 [1] [µM] |
| --- | --- | --- |
| COC(=O)CNC(=O)CC(Cc1cccc2ccccc12)C(=O)N[C@@H](Cc1c[nH]cn1)C(=O)N[C@@H](CC(C)C)C(O)C(=O)OC(C)C (mixture of isomers) [Isopropyl(2RS,3S)-3-{N-[2-(1-naphthylmethyl)-3-(N-methoxycarbonylmethylcarbamoyl)propionyl]-L-histidyl}amino-2-hydroxy-5-methylhexanoate] | 0.24 | 0.076 |
| COC(=O)C[C@@H](C(=O)OC)N(C)C(=O)CC(Cc1cccc2ccccc12)C(=O)N[C@@H](Cc1c[nH]cn1)C(=O)N[C@@H](CC(C)C)C(O)C(=O)OC(C)C (stereo partly drawn) [Isopropyl(2RS,3S)-3-{N-{2-(1-naphthylmethyl)-3-[N-methyl-N-(1S,2-bismethoxycarbonylethyl)carbamoyl]-propionyl}-L-histidyl}amino-2-hydroxy-5-methylhexanoate] | 0.081 | 0.19 |
| CC(C)C[C@H](NC(=O)[C@H](Cc1c[nH]cn1)NC(=O)C(CC(N)=O)Cc1cccc2ccccc12)C(O)C(=O)OC(C)C (mixture of isomers) [Isopropyl (2RS,3S)-3-{N-[3-(carbamoyl)-2-(1-naphthylmethyl)propionyl]-L-histidyl}amino-2-hydroxy-5-methylhexanoate] | 0.52 | 0.49 |
| COC(=O)[C@@H]1CCCN1C(=O)CC(Cc1cccc2ccccc12)C(=O)N[C@@H](Cc1c[nH]cn1)C(=O)N[C@@H](CC(C)C)C(O)C(=O)NCCC(C)C (stereo partly drawn) [(2RS,3S)-3-{N-[2-(1-Naphthylmethyl)-3-(2S-methoxycarbonylpyrrolidinocarbonyl)propionyl]-L-histidyl}amino-2-hydroxy-5-methylhexanoylisoamylamide] | 0.084 | 0.29 |
| CC(C)C[C@H](NC(=O)[C@H](Cc1c[nH]cn1)NC(=O)C(CC(=O)N[C@@H](C)C(N)=O)Cc1cccc2ccccc12)C(O)C(=O)OC(C)C (stereo partly drawn) [Isopropyl(2RS,3S)-3-{N-{2-(1-naphthylmethyl)-3-[N-(1S-carbamoylethyl)carbamoyl]propionyl}-L-histidyl}amino-2-hydroxy-5-methylhexanoate] | 0.44 | 0.24 |
| CC(C)C[C@H](NC(=O)[C@H](Cc1c[nH]cn1)NC(=O)C(CC(=O)OC(C)C)Cc1cccc2ccccc12)C(O)C(=O)OC(C)C (mixture of isomers) [Isopropyl (2RS,3S)-3-{N-[3-(isopropoxycarbonyl)-2-(1-naphthylmethyl)propionyl]-L-histidyl}amino-2-hydroxy-5-methylhexanoate] | 0.064 | 0.16 |
| CC(C)C[C@H](NC(=O)[C@H](Cc1c[nH]cn1)NC(=O)C(CC(=O)N(CCO)CCO)Cc1cccc2ccccc12)C(O)C(=O)OC(C)C (mixture of isomers) [Isopropyl(2RS,3S)-3-{N-{2-(1-naphthylmethyl)-3-[bis(2-hydroxyethyl)carbamoyl]propionyl}-L-histidyl}amino-2-hydroxy-5-methylhexanoate] | 0.089 | 0.18 |
| COC(=O)[C@@H]1CCCN1C(=O)CC(Cc1cccc2ccccc12)C(=O)N[C@@H](Cc1c[nH]cn1)C(=O)N[C@@H](CC(C)C)[C@@H](O)CC(=O)NCCC(C)C (stereo partly drawn) [N-[2-(1-Naphthylmethyl)-3-(2S-methoxycarbonylpyrrolidinocarbonyl)propionyl]-L-histidyl-statylisoamylamide] | 0.12 | 0.22 |
| CNC(=O)CNC(=O)CC(Cc1cccc2ccccc12)C(=O)N[C@@H](Cc1c[nH]cn1)C(=O)N[C@@H](CC(C)C)C(O)C(=O)OC(C)C (mixture of isomers) [Isopropyl(2RS,3S)-3-{N-[2-(1-naphthylmethyl)-3-(N-methylcarbamoylmethylcarbamoyl)propionyl]-L-histidyl}amino-2-hydroxy-5-methylhexanoate] | 0.62 | 0.29 |
| COC(=O)[C@H](C)NC(=O)CC(Cc1cccc2ccccc12)C(=O)N[C@@H](Cc1c[nH]cn1)C(=O)N[C@@H](CC(C)C)C(O)C(=O)OC(C)C (stereo partly drawn) [Isopropyl(2RS,3S)-3-{N-{2-(1-naphthylmethyl)-3-[N-(1S-methoxycarbonylethyl)carbamoyl]propionyl}-L-histidyl}amino-2-hydroxy-5-methylhexanoate] | 0.3 | 0.21 |

Now those with a lower IC50 (human renin), led by results:

| IC50 (human renin) [µM] | IC50 [1] [µM] | Compound |
| --- | --- | --- |
| 0.023 | 0.339 | COC(=O)CN(C)C(=O)CC(Cc1cccc2ccccc12)C(=O)N[C@@H](Cc1c[nH]cn1)C(=O)N[C@@H](CC(C)C)C(O)C(=O)NCCC(C)C (mixture of isomers) [(2RS,3S)-3-{N-[2-(1-Naphthylmethyl)-3-(N-methyl-N-methoxycarbonylmethylcarbamoyl)propionyl]-L-histidyl}amino-2-hydroxy-5-methylhexanoylisoamylamide] |
| 0.012 | 0.014 | COC(=O)CN(C)C(=O)CC(Cc1cccc2ccccc12)C(=O)N[C@@H](Cc1c[nH]cn1)C(=O)N[C@@H](CC(C)C)C(O)C(=O)OC (mixture of isomers) [Methyl(2RS,3S)-3-{N-[2-(1-naphthylmethyl)-3-(N-methyl-N-methoxycarbonylmethylcarbamoyl)propionyl]-L-histidyl}amino-2-hydroxy-5-methylhexanoate] |
| 0.04 | 0.053 | COC(=O)C(O)[C@H](CC(C)C)NC(=O)[C@H](Cc1c[nH]cn1)NC(=O)C(CC(=O)N1CCC[C@H]1C(=O)OC)Cc1cccc2ccccc12 (stereo partly drawn) [Methyl(2RS,3S)-3-{N-[2-(1-naphthylmethyl)-3-(2S-methoxycarbonylpyrrolidinocarbonyl)propionyl]-L-histidyl}amino-2-hydroxy-5-methylhexanoate] |
| 0.037 | 0.06 | COC(=O)CC(Cc1cccc2ccccc12)C(=O)N[C@@H](Cc1c[nH]cn1)C(=O)N[C@@H](CC(C)C)[C@@H](O)CC(=O)NCCC(C)C (stereo partly drawn) [N-[3-(methoxycarbonyl)-2-(1-naphthylmethyl)propionyl]-L-histidyl-statylisoamylamide] |
| 0.035 | 0.035 | COC(=O)CN(C)C(=O)CC(Cc1cccc2ccccc12)C(=O)N[C@@H](Cc1c[nH]cn1)C(=O)N[C@@H](CC(C)C)[C@@H](O)CC(=O)NCCC(C)C (stereo partly drawn) [N-[2-(1-Naphthylmethyl)-3-(N-methyl-N-methoxycarbonylmethylcarbamoyl)propionyl]-L-histidyl-statylisoamylamide] |
| 0.041 | 0.028 | CC(C)C[C@H](NC(=O)[C@H](Cc1c[nH]cn1)NC(=O)C(CC(=O)N(C)CCO)Cc1cccc2ccccc12)C(O)C(=O)OC(C)C (mixture of isomers) [Isopropyl(2RS,3S)-3-{N-{2-(1-naphthylmethyl)-3-[N-methyl-N-(2-hydroxyethyl)carbamoyl]propionyl}-L-histidyl}amino-2-hydroxy-5-methylhexanoate] |
| 0.023 | 0.14 | CC(C)C[C@H](NC(=O)[C@H](Cc1c[nH]cn1)NC(=O)C(CC(=O)N1CCC[C@H]1CO)Cc1cccc2ccccc12)C(O)C(=O)OC(C)C (stereo partly drawn) [Isopropyl(2RS,3S)-3-{N-[2-(1-naphthylmethyl)-3-(2S-hydroxymethylpyrrolidinocarbonyl)propionyl]-L-histidyl}amino-2-hydroxy-5-methylhexanoate] |
| 0.017 | 0.017 | COC(=O)CCN(C)C(=O)CC(Cc1cccc2ccccc12)C(=O)N[C@@H](Cc1c[nH]cn1)C(=O)N[C@@H](CC(C)C)C(O)C(=O)OC(C)C (mixture of isomers) [Isopropyl(2RS,3S)-3-{N-{2-(1-naphthylmethyl)-3-[N-methyl-N-{2-methoxycarbonylethyl)carbamoyl]propionyl}-L-histidyl}amino-2-hydroxy-5-methylhexanoate] |
| 0.028 | 0.015 | COC(=O)[C@H]1CCCN1C(=O)CC(Cc1cccc2ccccc12)C(=O)N[C@@H](Cc1c[nH]cn1)C(=O)N[C@@H](CC(C)C)C(O)C(=O)OC(C)C (stereo partly drawn) [Isopyl(2RS,3S)-3-{N-[2-(1-naphthylmethyl)-3-(2R-methoxycarbonylpyrrolidinocarbonyl)propionyl]-L-histidyl}amino-2-hydroxy-5-methylhexanoate] |
